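Five compound concentrations were applied to cells in 96-well plates for 48 hours; endpoints were derived by simple linear interpolation of the resulting dose-response curve. GI50 marks 50% less growth. Definition used: TGI = concentration required for complete inhibition of growth.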
How the values were obtained:
Experiment in all cases: inhibition of tumour cell growth, NCI panel, 48 h
[1] = system: A549 NSCLC
[2] = system: ACHN renal
[3] = system: HCT-15 colon
[4] = system: M14 melanoma
[5] = system: NCI-H226 lung
[6] = system: NCI-H522 lung
[7] = system: SNB-75 CNS
[8] = system: UACC-257 melanoma
[9] = system: MCF7 breast
[10] = system: T-47D breast

Structure (SMILES)	TGI [1] [µM]	TGI [2] [µM]	TGI [3] [µM]	TGI [4] [µM]	TGI [5] [µM]	TGI [6] [µM]	TGI [7] [µM]	TGI [8] [µM]	GI50 [1] [µM]	GI50 [4] [µM]	GI50 [9] [µM]	TGI [9] [µM]	GI50 [5] [µM]	GI50 [7] [µM]	GI50 [10] [µM]	TGI [10] [µM]	GI50 [8] [µM]	GI50 [2] [µM]	GI50 [3] [µM]	GI50 [6] [µM]
CC(C)=CC(=O)Oc1ccc([N+](=O)[O-])cc1	> 100	> 100	> 100	> 100	> 100	14.8	> 100	> 100	–	–	–	–	–	–	–	–	–	–	–	–
COC(=O)NC/C=C\c1nc(CC/C=C\C(=O)OC2CC3CC(=O)O[C@H](/C=C/CC(C)C)C[C@H]4CCC(C)C(C[C@H](OC)CC(C2)O3)O4)co1 (stereo partly drawn)	> 100	–	–	> 100	> 100	–	> 100	> 100	< 0.01	4.27	< 0.01	10.5	12.9	32.5	39.1	> 100	> 100	–	–	–
COC1/C(=C\C(=O)OC(C)(C)C)c2ccccc2N1C(C)=O (stereo not drawn)	> 100	> 100	> 100	> 100	–	–	> 100	> 100	–	–	–	–	–	–	–	–	–	–	–	–
CC(=O)NC1=C(Nc2ccc(C)cc2)C(=O)c2ccccc2C1=O	29.3	47.5	39.3	25.3	42.5	–	22.6	51.5	–	–	–	–	–	–	–	–	–	–	–	–
O=C(O)c1c2c(c(C(=O)O)c3ccccc13)-c1ccccc1-2	> 100	> 100	–	> 100	> 100	> 100	> 100	> 100	–	–	–	–	–	–	–	–	–	–	–	–
COC(=O)/C=C(C)/C=C/c1cc(C(C)=O)c(C)o1	> 100	> 100	> 100	> 100	–	> 100	> 100	> 100	–	–	–	–	–	–	–	–	–	–	–	–
CC(=O)[CH-]C(=O)c1ccccc1.CC(=O)[CH-]C(=O)c1ccccc1.CC(=O)[CH-]C(=O)c1ccccc1.[Tl+3]	> 100	> 100	> 100	> 93	> 100	> 100	> 100	82.7	42.1	24.7	–	–	35.7	48.1	–	–	26.3	51.1	41.7	> 54.7
CCOC(=O)Cc1csc(/N=C2\NC(=O)/C(=C3\C(=O)N(C)c4ccccc43)S2)n1	> 100	> 100	> 100	–	> 100	93.3	–	> 100	36.5	–	46.8	> 100	28.6	–	81.5	> 100	79.1	35.9	39.7	24.8
CCOC(=O)/C(=C\c1ccc(OCc2ccccc2)c(OC)c1)C(=O)c1ccccc1	> 10	34.8	42.3	30.5	42.5	32.6	–	> 10	–	–	–	–	–	–	–	–	–	–	–	–
CCOc1cc2c(cnc3c4cc(OC)c(OC)cc4ccc23)cc1OC	> 100	> 100	> 100	> 100	–	> 100	> 100	> 100	–	–	–	–	–	–	–	–	–	–	–	–
COc1ccc2c([nH]c3cc(O)c(C)cc32)c1C=O	> 25	> 25	> 25	> 25	> 25	> 25	–	–	–	–	–	–	–	–	–	–	–	–	–	–
N/N=C(\CC1OC(=O)c2ccccc21)c1ccco1 (stereo not drawn)	> 100	> 100	> 100	> 100	> 100	> 100	> 100	> 100	–	–	–	–	–	–	–	–	–	–	–	–
Nc1ccc(C(=O)c2ccc(N)c(Br)c2)cc1Br	31.3	> 69.9	> 100	72.5	> 61.5	0.623	13.4	> 100	0.494	0.32	0.428	> 100	4.27	0.291	–	–	14.4	1.47	0.466	0.256
COc1ccc(C(=O)C(c2ccc(OC)cc2)C2(O)C(=O)Nc3c(C)cc(Cl)cc32)cc1 (stereo not drawn)	> 100	> 100	> 100	> 100	> 100	> 100	> 100	> 100	–	–	–	–	–	–	–	–	–	–	–	–
CC1(CO)OC1COCc1ccccc1 (stereo not drawn)	> 100	> 100	> 100	> 100	> 100	–	> 100	> 100	–	–	–	–	–	–	–	–	–	–	–	–
CC(=O)OCSc1ncnc2c1ncn2CN1CCOCC1	> 100	> 100	> 100	> 100	> 100	> 100	> 100	> 100	–	–	–	–	–	–	–	–	–	–	–	–
O=C(CNC(=O)OCc1ccccc1)Oc1ccccc1	> 100	> 100	> 100	> 100	> 100	> 100	> 100	> 100	–	–	–	–	–	–	–	–	–	–	–	–
COc1cc2c(c(OC)c1OC)-c1ccc(SC)c(=O)cc1[C@@H](NC(=O)c1ccc(OC(C)=O)cc1)CC2	> 100	> 100	–	–	0.0528	–	–	19.2	–	–	–	–	–	–	–	–	–	–	–	–
C1CNCCNCCNCCN1	> 100	> 100	–	> 100	> 100	> 100	> 100	> 100	–	–	–	–	–	–	–	–	–	–	–	–
N#CCc1ccc(C(C#N)/C(CCCC(=O)Nc2cccc([N+](=O)[O-])c2)=N\NC(=O)NN)cc1 (stereo not drawn)	> 100	> 100	> 100	> 100	> 100	> 100	> 100	> 100	–	–	–	–	–	–	–	–	–	–	–	–
Clc1ccc(-n2nnc(C3=NCCCN3)c2-c2ccccc2)cc1	> 100	> 100	> 100	> 100	> 100	> 100	> 100	> 100	–	–	–	–	–	–	–	–	–	–	–	–
N#CC1=C(N)OC2=C(COc3ccc(F)cc32)C1c1ccc(Cl)cc1 (stereo not drawn)	> 100	93.5	> 100	> 100	–	93.6	> 100	> 100	93.4	44.6	30.3	> 100	–	> 100	> 100	> 100	41.6	22.9	34.4	38.2
